Assay results taken from patent US20130205659A1, “METHOD OF CONTROLLING FUSARIUM VIGULIFORME AND SOYBEAN SUDDEN DEATH SYNDROME USING THIABENDAZOLE” (SYNGENTA CROP PROTECTION LLC, priority 2010, published 2013).

System: Fusarium virguliforme
Experiment: Growth chamber soybean sudden death syndrome seed treatment test, soil inoculated with F. virguliforme spores, visual disease severity rating
Type: in vivo
Conditions: for reduction in disease severity: seed treatment, versus control; for Sudden death syndrome Disease Severity (1-9): seed treatment (thiabendazole 5 g ai/100 kg seed; 2.5 g fludioxonil + 3.75 g mefenoxam/100 kg seed), averaged across five growth chamber runs, Njiti et al. scale
Excerpt: Soybean cultivars NK-529-J6 and NK-533-T4 where used for testing. Cultivar NK-529-J6 is labeled as partially resistant to SDS and cultivar NK-533-T4 is labeled susceptible to SDS (Syngenta Seeds, Minneapolis, Minn.). Thiabendazole fungicide seed treatment was applied to both cultivars at a rate of 5 g a.i./100 kg seed. A mefenoxam and fludioxonil combination fungicide seed treatment was also applied at a rate of 3.75 g a.i./100 kg seed and 2.5 g a.i./100kg seed, respectively. Three pathogenic isolates of F. virguliforme (Scherm et al., 1978) were used to inoculate grain sorghum (Sorghum bicolor (L.)) following the methods of Farris Neto et al. (2006). Isolates were grown on one third strength Difco Potato Dextrose Agar (PDA) growth medium. After 18 days, isolate growth on the PDA was divided into thirds and placed into a bag containing 2.27 kg of sorghum seed and allowed to incubate at room temperature for 15 days. Five experiments were conducted in a growth chamber. Each experiment was a randomized complete block design with eight replications. A 1:1 ratio of soil and sand medium was mixed together thoroughly, and steam sterilized at 121° C. for one hour. Upon sterilization of the soil medium 150 g of soil and 2.25 g of yellow cornmeal was weighed and mixed together for each conetainer. A spore suspension was prepared using 17 to 20 day old isolates of F. virguliforme grown on PDA media. Each isolate was aseptically flooded with sterilized, de-ionized water and scraped from the PDA plates causing the release of F. virguliforme spores. Each isolate was then strained through cheesecloth and mixed together to produce the spore suspension. Spore concentrations were determined using a hemacytometer, and concentrations were adjusted to produce 10 000 spores g soil^−1. After the spore concentration was determined the spore suspension was diluted to a volume of 13 ml of spore suspension per conetainer. The soil was then inoculated with the diluted spore suspension (Gongora-Canul and Leandro, 2007). Once the soil was inoculated, conetainers were filled level full with the inoculated soil, and then planted with two seeds of each variety by seed treatment combination (after emergence, thinned to one plant per conetainer) and placed in the growth chamber. Growth chambers were set at 17° C. for one week then changed to 24° C., and maintained for the remainder of the experiment. Growth chambers were set to 17° C. to help slow the germination of the soybean and therefore increase the probability for infection of F. virguliforme to take place (Gongora-Canul and Leandro, 2008). […]
Data collection for the growth chambers consisted of visual disease ratings of SDS symptom severity following the methods of Njiti et al. (1996). […] Disease incidence was recorded as a presence/absence rating.

## c1ccc2[nH]c(-c3cscn3)nc2c1 [Thiabendazole, thiabendazole]
Soybean cultivar NK-533-T4
  reduction in disease severity: 35%
Soybean cultivar NK-S29-J6 (partially resistant to SDS)
  Sudden death syndrome Disease Severity (1-9): 0.96
Soybean cultivar NK-S29-J6 (printed NK-29-J6)
  reduction in disease severity: 25%
Soybean cultivar NK-S33-T4 (SDS susceptible), LSD (0.05) 0.39
  Sudden death syndrome Disease Severity (1-9): 1.08
